Test: xn = mol fraction of the nth substance listed
Settings: 100 kPa

CCCC[n+]1ccn(C)c1.O=S(=O)([N-]S(=O)(=O)C(F)(F)F)C(F)(F)F + CO
Settings	speed of sound [m/s]	viscosity [mPa·s]
298.15 K, x2 = 0	1227.5	49.6
298.15 K, x2 = 0.2068	1218.3	34.37
298.15 K, x2 = 0.295	1213.6	28.65
298.15 K, x2 = 0.4004	1208.6	22.3
298.15 K, x2 = 0.4923	1202	17.55
298.15 K, x2 = 0.5956	1191.3	12.55
298.15 K, x2 = 0.7947	1159.2	5.11
298.15 K, x2 = 0.8978	1134.4	1.7
303.15 K, x2 = 0.2068	1206.7	28.28
303.15 K, x2 = 0.295	1202.3	23.6
303.15 K, x2 = 0.4923	1190.3	14.6
303.15 K, x2 = 0.5956	1180	10.52
303.15 K, x2 = 0.7056	1164.1	6.79
303.15 K, x2 = 0.7947	1146.7	4.38
303.15 K, x2 = 0.8978	1121.2	1.55
308.15 K, x2 = 0	1205.5	33.25
308.15 K, x2 = 0.0986	1201.6	28.87
308.15 K, x2 = 0.2068	1196	23.61
308.15 K, x2 = 0.295	1192.5	19.98
308.15 K, x2 = 0.4004	1186.7	15.74
308.15 K, x2 = 0.4923	1179.1	12.56
308.15 K, x2 = 0.5956	1169.2	9.2
308.15 K, x2 = 0.7056	1152.6	5.97
308.15 K, x2 = 0.7947	1134.5	3.97
308.15 K, x2 = 0.8978	1108.1	1.42
313.15 K, x2 = 0	1193.5	28
313.15 K, x2 = 0.0986	1190.8	24.53
313.15 K, x2 = 0.2068	1184.4	20.1
313.15 K, x2 = 0.295	1180.8	17.14
313.15 K, x2 = 0.4004	1175.5	13.55
313.15 K, x2 = 0.4923	1168	10.82
313.15 K, x2 = 0.5956	1158.3	8.03
313.15 K, x2 = 0.7056	1141.2	5.28
313.15 K, x2 = 0.7947	1122.6	3.54
313.15 K, x2 = 0.8978	1095.2	1.31
318.15 K, x2 = 0	1183.5	23.75
318.15 K, x2 = 0.2068	1173.6	17.22
318.15 K, x2 = 0.4004	1164.9	11.7
318.15 K, x2 = 0.5956	1147.7	7.01
318.15 K, x2 = 0.7947	1110.5	3.13
318.15 K, x2 = 0.8978	1082.2	1.21
323.15 K, x2 = 0	1171.3	20.39
323.15 K, x2 = 0.0986	1169.3	18.1
323.15 K, x2 = 0.2068	1162.4	14.96
323.15 K, x2 = 0.295	1160	12.89
323.15 K, x2 = 0.4004	1154.4	10.31
323.15 K, x2 = 0.4923	1146.6	8.33
323.15 K, x2 = 0.5956	1137.2	6.21
323.15 K, x2 = 0.7947	1098.7	2.81

CCCC[n+]1ccn(C)c1.O=S(=O)([N-]S(=O)(=O)C(F)(F)F)C(F)(F)F + CS(C)=O
x2 = 0
Settings	speed of sound [m/s]	viscosity [mPa·s]
298.15 K	1227.5	49.6
308.15 K	1205.5	33.25
313.15 K	1193.5	28
323.15 K	1171.3	20.39

From a compilation of properties of binary mixtures (doi:10.1016/j.molliq.2017.03.027)
